For orientation: GI50 means the concentration at which growth is held to half of that of the control. The term TGI denotes the concentration at which net growth stops.

Several values for one entry are separate records, joined by “and”; a condition that tells them apart may be missing. Equal values may be shown once.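 Cultured in 96-well plates, cells were exposed to test compound for 48 hours across five concentrations. The concentration for 50% growth inhibition is given as GI50. TGI denotes the concentration required for complete inhibition of growth.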

Test systems include MALME-3M melanoma; SK-MEL-28 melanoma; NCI-H226 lung; NCI/ADR-RES ovarian; OVCAR-5 ovarian; DU-145 prostate; OVCAR-8 ovarian; 786-0 renal; M19-MEL melanoma; SNB-78 CNS.
Holding throughout (test): DTP human tumour cell line panel, 48 h

`Cc1ccc2c(c1)c(Sc1ccc(C(=O)NO)cc1)c1n2CN(C)CC1`: the GI50 in the assay with MALME-3M melanoma was 1.35 µM; in the assay on SK-MEL-28 melanoma it was 1.58 µM; with NCI-H226 lung, 1.83 µM; in the assay with NCI/ADR-RES ovarian, 3.88 µM; in the assay with OVCAR-5 ovarian, 1.75 µM; in the assay on DU-145 prostate it was 1.83 µM. The GI50 with OVCAR-8 ovarian was 1.69 µM; in the assay on 786-0 renal, 2.82 µM. Further, the total growth inhibition concentration (TGI) was determined as 4.2 µM in the assay with MALME-3M melanoma; 3.63 µM in the assay on SK-MEL-28 melanoma; 4.86 µM with NCI-H226 lung; 19 µM with NCI/ADR-RES ovarian; 5.54 µM in the assay on OVCAR-5 ovarian; 5.28 µM in the assay on DU-145 prostate. Moreover, the concentration for total growth inhibition (TGI) with OVCAR-8 ovarian was 4.99 µM; with 786-0 renal, 8.53 µM.

In the case of `COc1cc2c(c(OC)c1OC)-c1ccc(OC)c(=O)cc1[C@@H](NC(C)=O)CC2`, the TGI in the assay on M19-MEL melanoma is more than 522 µM; in the assay on SK-MEL-28 melanoma, more than 625 µM; in the assay on OVCAR-5 ovarian it was more than 625 µM; with DU-145 prostate, 0.0538 µM; in the assay with OVCAR-8 ovarian, more than 100 µM; with 786-0 renal, more than 100 µM. Besides, the GI50 with MALME-3M melanoma was 4.33 µM and 1.35 µM; in the assay with NCI/ADR-RES ovarian it was 0.488 µM; in the assay with OVCAR-5 ovarian, more than 578 µM; in the assay with OVCAR-8 ovarian, 1.35 µM.

For the molecule `N=C(N)SCc1c2ccccc2c(CSC(=N)N)c2ccccc12`, the GI50 in the assay with MALME-3M melanoma is 6.85 µM; in the assay on SK-MEL-28 melanoma it was 10.6 µM; in the assay with NCI-H226 lung, 6.44 µM; in the assay on NCI/ADR-RES ovarian, 23.8 µM; with OVCAR-5 ovarian, 14.8 µM; in the assay on DU-145 prostate, 5.63 µM. Besides, the GI50 in the assay with OVCAR-8 ovarian was 6.49 µM; with 786-0 renal, 9.35 µM. For the same molecule, the concentration for total growth inhibition (TGI) is 25.2 µM in the assay on MALME-3M melanoma; 24.1 µM in the assay on SK-MEL-28 melanoma; 30.6 µM in the assay with NCI-H226 lung; more than 100 µM in the assay with NCI/ADR-RES ovarian; 28.7 µM in the assay with OVCAR-5 ovarian; 20 µM in the assay with DU-145 prostate. Further, the total growth inhibition concentration (TGI) in the assay with OVCAR-8 ovarian came out at 50.4 µM; in the assay with 786-0 renal it was 24 µM.

On to `O=C(/C(=C/c1ccc([N+](=O)[O-])cc1)SCc1ccc(Cl)cc1)c1ccc(F)cc1`, for which the GI50 is 3.22 µM with MALME-3M melanoma; 4.26 µM in the assay with SK-MEL-28 melanoma; 9.67 µM with NCI-H226 lung; 2.78 µM in the assay on NCI/ADR-RES ovarian; 3 µM with OVCAR-5 ovarian; 13.8 µM in the assay on DU-145 prostate. Besides, the GI50 in the assay on OVCAR-8 ovarian was 3.17 µM; in the assay on 786-0 renal, 2.66 µM. Further, the total growth inhibition concentration (TGI) in the assay on MALME-3M melanoma is 12.3 µM; in the assay on SK-MEL-28 melanoma, 16.2 µM; in the assay with NCI-H226 lung, more than 41.6 µM; in the assay with NCI/ADR-RES ovarian it was 11.2 µM; with OVCAR-5 ovarian it was 12.1 µM; in the assay with DU-145 prostate it was more than 57.3 µM. Moreover, the TGI with OVCAR-8 ovarian is 12.7 µM; in the assay on 786-0 renal it was 7.9 µM.

With `C[C@@H](NC(=O)/C(C#N)=C/c1ccc([N+](=O)[O-])cc1)c1ccccc1`, the GI50 in the assay on MALME-3M melanoma was 2.92 µM; in the assay on SK-MEL-28 melanoma, 1.95 µM; in the assay with NCI-H226 lung, 1.78 µM; with NCI/ADR-RES ovarian, 3.19 µM; with OVCAR-5 ovarian, 1.96 µM; with DU-145 prostate, 2.07 µM. Besides, the GI50 in the assay on OVCAR-8 ovarian is 2.87 µM; in the assay with 786-0 renal it was 2.54 µM. Besides, the TGI with MALME-3M melanoma is 8.31 µM; in the assay with SK-MEL-28 melanoma, 3.83 µM; in the assay with NCI-H226 lung, 3.69 µM; in the assay on NCI/ADR-RES ovarian it was 13.3 µM; in the assay on OVCAR-5 ovarian it was 4.06 µM; in the assay with DU-145 prostate it was 4.33 µM. The TGI in the assay with OVCAR-8 ovarian came to 8.05 µM; with 786-0 renal, 8.84 µM.

Consider `CC1(Br)CC2OC3(Br)C=CC(C)(O)C2(CC1=O)C3(C)C` (centres undefined), for which the concentration for total growth inhibition (TGI) in the assay on MALME-3M melanoma, in the assay on SNB-78 CNS, in the assay on SK-MEL-28 melanoma, in the assay with NCI-H226 lung, in the assay with OVCAR-5 ovarian and in the assay with OVCAR-8 ovarian was more than 100 µM throughout. The same molecule showed a concentration for total growth inhibition (TGI) in the assay on 786-0 renal of more than 100 µM.

`COC(=O)C1=COC(C)C2CN3CCc4c([nH]c5cc(OC)c(OC)cc45)C3CC12` (centres undefined): the total growth inhibition concentration (TGI) in the assay with MALME-3M melanoma, in the assay with SK-MEL-28 melanoma, with NCI-H226 lung, in the assay with NCI/ADR-RES ovarian, in the assay on OVCAR-5 ovarian and in the assay with DU-145 prostate was more than 100 µM in each case. Further, the TGI with OVCAR-8 ovarian and in the assay with 786-0 renal was more than 100 µM throughout. Moreover, the GI50 in the assay with SK-MEL-28 melanoma is > 100 µM and 34.2 µM; in the assay with NCI/ADR-RES ovarian, 15.1 µM and 64.2 µM; in the assay on OVCAR-8 ovarian, > 100 µM and 45.1 µM.

In the case of `CCOC(=O)Cc1csc(Nc2ccc(OCC)cc2)n1`, the TGI with M19-MEL melanoma, in the assay with MALME-3M melanoma, with SNB-78 CNS, with SK-MEL-28 melanoma, in the assay with NCI-H226 lung and in the assay on OVCAR-8 ovarian was more than 100 µM in each case. The molecule also showed a total growth inhibition concentration (TGI) in the assay on 786-0 renal of more than 100 µM.

Regarding `N/C(=N/N=C/c1ccccc1)N/N=C\c1ccccc1`, the GI50 is 6.84 µM in the assay on MALME-3M melanoma; 10.7 µM in the assay with SK-MEL-28 melanoma; 12.3 µM in the assay on NCI-H226 lung; 3.26 µM in the assay with NCI/ADR-RES ovarian; 19.4 µM in the assay with OVCAR-5 ovarian; 5.54 µM with DU-145 prostate. The figures for the GI50 in the assay on OVCAR-8 ovarian and in the assay with 786-0 renal were 6.69 µM and 5.2 µM, respectively. In addition, the TGI with MALME-3M melanoma was 27.2 µM; in the assay with SK-MEL-28 melanoma, 33.3 µM; in the assay with NCI-H226 lung, more than 100 µM; with NCI/ADR-RES ovarian, more than 100 µM; in the assay with OVCAR-5 ovarian, more than 100 µM; with DU-145 prostate, 92.7 µM. Also, the results for the total growth inhibition concentration (TGI) in the assay with OVCAR-8 ovarian and in the assay on 786-0 renal were more than 100 µM and 43.9 µM, respectively.

For the molecule `C[C@@H]1CCC([C@@H](C)[C@H]2CC[C@H]3[C@@H]4CC[C@H]5C[C@@H](O)CC[C@]5(C)[C@H]4CC[C@]23C)=NC1`, the TGI is more than 100 µM in the assay on MALME-3M melanoma; more than 77.3 µM in the assay with SK-MEL-28 melanoma; more than 100 µM in the assay with NCI-H226 lung; more than 100 µM with NCI/ADR-RES ovarian; more than 100 µM with OVCAR-5 ovarian; more than 100 µM in the assay with DU-145 prostate. The total growth inhibition concentration (TGI) in the assay with OVCAR-8 ovarian is more than 100 µM; with 786-0 renal, more than 56.2 µM.

For the molecule `CCCCCCCCCCCCSC1=C(Cl)C(=O)C(OC)=C(OC)C1=O`, the GI50 in the assay with MALME-3M melanoma was 0.539 µM; in the assay on SK-MEL-28 melanoma, 5.93 µM; in the assay on NCI-H226 lung it was 5.9 µM; with NCI/ADR-RES ovarian, 2.48 µM; in the assay on OVCAR-5 ovarian, 3.49 µM; in the assay with DU-145 prostate it was 11.2 µM. Further, the GI50 was 2.35 µM with OVCAR-8 ovarian and 4.18 µM in the assay with 786-0 renal. Further, the total growth inhibition concentration (TGI) was 14.2 µM in the assay on MALME-3M melanoma; 21.8 µM in the assay on SK-MEL-28 melanoma; 28.3 µM in the assay with NCI-H226 lung; 8.94 µM with NCI/ADR-RES ovarian; 11.7 µM with OVCAR-5 ovarian; 31.5 µM in the assay with DU-145 prostate. Also, the total growth inhibition concentration (TGI) in the assay on OVCAR-8 ovarian is more than 100 µM; in the assay on 786-0 renal, 19.2 µM.
